“Also recorded” adds a separate entry of the source. Like-named read-outs stand apart in the source and are kept apart here.
Experiments:
[1] = Induction period prior to oxidation, ANSI/ASTM method D525-74, gasoline sample A
Experimental: (§1) The effectiveness of materials as antioxidants in liquid petroleum products was determined by measurement of the induction period prior to oxidation, ANSI/ASTM method D525-74, and by measurement of gum formation under accelerated storage conditions, ANSI/ASTM method D873-74. The liquid petroleum product was either a base washed riser-cracked gasoline from British Petroleum Co., Canada (sample A) or a base washed, blended full range gasoline from Union Oil (sample B). As a comparison, there is included an antioxidant of wide commercial utility which consists of 2,6-di-t-butylphenol (75%), 2,4,6-tri-t-butylphenol (15%) and 2,t-butylphenol (10%) and which we designate by the symbol E733.

[2] = Induction period prior to oxidation, ANSI/ASTM method D525-74, gasoline sample B; details: runs 4-7 (no additive: 80-105)
Experimental: as §1

[3] = Gum formation under accelerated storage conditions, ANSI/ASTM method D873-74, gasoline sample A
Experimental: as §1

[4] = Gum formation under accelerated storage conditions, ANSI/ASTM method D873-74, gasoline sample B; details: runs 4-7 (no additive: 320)
Experimental: as §1

[5] = Oxidative stability of gasoline / petroleum distillates, overall antioxidant effectiveness in words; details: for effectiveness in increasing the induction period: versus commercial product commonly used to stabilize gasoline
Text: Among the products which may be prepared by this invention, the di- and tri-isopropylated hydroxy substituted aromatic compounds are effective antioxidants for stabilizing various petroleum distillates. Examples of the latter include home heating fuel, gasoline, diesel fuel, aviaton fuel, kerosene, and lubricating oils. […] One way of determining the stabilizing effect of additives is to compare the induction period to oxidation of a composton differing only in the nature of the additive present. […] The di- and tri-isopropylated phenols of the present invention may be used as antioxidants at concentrations from about 5 parts per million by weight to about 5% by weight, and preferably from about 5 to about 500 parts per million by weight when used in fuel oils.
as §1

[6] = 20 ppm, runs 4-7 (no additive: 125-130)
[7] = 35 ppm, runs 4-7 (no additive: 125-130)
[8] = 50 ppm, runs 4-7 (no additive: 125-130)
[9] = 35 ppm, runs 4-7 (no additive: 180)
[10] = 50 ppm, runs 4-7 (no additive: 180)

Row | Structure (SMILES) | Induction Period [1, 6] | Induction Period [1, 7] | Induction Period [1, 8] | Induction Period ([2]; 20 ppm) | Induction Period ([2]; 35 ppm) | Induction Period ([2]; 50 ppm) | Accelerated Gum [3, 9] | Accelerated Gum [3, 10] | Accelerated Gum ([4]; 20 ppm) | Accelerated Gum ([4]; 35 ppm) | Accelerated Gum ([4]; 50 ppm) | antioxidant effectiveness for stabilizing petroleum distillates [5] | imparting oxidative stability to the gasolines tested [5] | effectiveness in increasing the induction period [5] | Induction Period ([1]; 20 ppm, runs 1-3 (no additive: 170)) | Induction Period ([1]; 40 ppm, runs 1-3 (no additive: 170)) | Accelerated Gum ([3]; 20 ppm, runs 1-3 (no additive: 45)) | Accelerated Gum ([3]; 40 ppm, runs 1-3 (no additive: 45)) | antioxidant effectiveness for stabilizing petroleum distillates ([5]; general statement in words) | imparting oxidative stability to the gasolines tested ([5]; versus commercial standard, measured by increase in induction period and decrease in gum formation)
1 | CC(C)c1cc(C(C)C)c(O)c(C(C)C)c1 [2,4,6-triisopropylphenol] | 245 min | 310 min | 375 min | 270 min | 350 min | 420 min | 7-8 mg/100 ml | 7-8 mg/100 ml | 13 mg/100 ml | 2.5 mg/100 ml | 2.5 mg/100 ml | particularly effective | substantially more effective than an accepted commercial standard | substantially more effective in increasing the induction period | – | – | – | – | – | –
2 | Cc1cc(C(C)C)c(O)c(C(C)C)c1 [2,6-diisopropyl-4-methylphenol] | – | – | – | – | – | – | – | – | – | – | – | – | – | substantially more effective in increasing the induction period | 340 min | 475 min | 5 mg/100 ml | 3 mg/100 ml | particularly effective; also recorded: particularly desirable antioxidant properties | substantially more effective than an accepted commercial standard
3 | CC(C)c1cccc(C(C)C)c1O [2,6-diisopropylphenol] | 200 min | 240 min | 305 min | 195 min | 250 min | 310 min | 35 mg/100 ml | 9 mg/100 ml | – | 4.5 mg/100 ml | 3.5 mg/100 ml | – | – | – | – | – | – | – | – | –
